Values of other authors as cited in patent publication US20220251295A1 (DYNAMIC BIOLOGICS INC., priority 2019, published 2022).
Values belong to the molecule of their own block, whether it stands above or below them.

Experiments:
[1] = Phase III clinical trials
[2] = administered with levodopa
[3] = levodopa alone

SMILES: CCOC(=O)[C@@H](N)Cc1ccc(O)c(O)c1 [Etilevodopa]
- efficacy compared with Levodopa [1]: less efficacious than Levodopa

SMILES: C[C@@](Cc1ccc(O)c(O)c1)(NN)C(=O)O [carbidopa]
- reduction of the amount of levodopa required to produce a given response [2]: 75%

- Plasma half-life of levodopa [3]: ~50 min
SMILES: N[C@@H](Cc1ccc(O)c(O)c1)C(=O)O [levodopa, (S)-2-amino-3-(3,4-dihydroxyphenyl)propanoic acid]
